{"source": "patent US20120321584A1", "about": "“PROCESSES FOR PREPARING AMINE SALTS OF KMUP-3 AND USE THEREOF” (KAOHSIUNG MEDICAL UNIVERSITY, priority 2011, published 2012)", "key": {"[1]": {"experiment": "Hemodynamic measurements in anesthetized rats (LVSP, dP/dt, MABP, HR)", "type": "in vivo, Wistar rats", "conditions": "intravenous pretreatment at 1 mg/kg; KMUP-3 1 mg/kg, i.v.", "protocol": "Hemodynamic measurements were carried out in male Wistar rats weighting 300˜350 g, anesthetized with pentobarbital sodium (40 mg kg^−1, i.p.). In brief, polyethylene tubing (PE50) was placed in the trachea to keep the airway patent, and rats continued to breathe spontaneously. Subsequently, rats were used to record hemodynamic and cardiovascular function. Vascular catheters (PE50) were placed in the femoral arteries to measure mean arterial blood pressure (MABP) and heart rate (HR). Changes of MABP and HR caused by KMUP-3 or KMUP-3 amine salt were recorded from the femoral artery with a pressure transducer (Gould, Model P50, U.S.A.), connected with a Pressure Processor Amplifier (Gould, Model 13-4615-52, U.S.A.). A femoral vein was used for intravenous administration of KMUP-3 or KMUP-3 amine salt. A specialized transducer tip catheter was placed in the right carotid artery and advanced into the left ventricle of the heart for measurement of left ventricular pressure (LVSP) or contractility; dP/dt at 50 mm Hg, an index of cardiac contractility, was derived from the left ventricular pressure trace; post-hoc vascular resistance was calculated as mean arterial blood pressure/peripheral cardiac output (MABP/PCO). Body temperature was monitored throughout the experiment and maintained between 37 and 37.5° C. by using a heating pad.\nEach dose of active drugs was administered as a 20-min infusion in a series of escalating doses dissolved in a 5% dextrose water vehicle. […] KMUP-3 HCl or KMUP-3 amine salt were infused at 0.03, 0.05, and 0.075 μg/kg/20 min for the measurement of FABP, intraperitoneally injected at 0.03, 0.05 and 0.1 mg/kg for the measurement of MABP and HR and infused by intravenous injection for 2 min at 0.5, 1.0, 3.0 mg/kg dissolved in 5% dextrose water vehicle (2 ml) for the measurement of LV systolic pressure (LVSH), ABP, dP/dt, and HR. The primary hemodynamic variables were computed using commercial software and a signal processing workstation. Animals were randomly divided into one of six treatment or vehicle groups. After the completion of the surgical protocol, animals were allowed to stabilize for 1 h, and baseline data were collected at 5-min intervals for 30 min before the treatment."}, "[2]": {"system": "electrically-stimulated left atria", "experiment": "Electrically-stimulated beating left atrium, organ bath", "type": "cell-based, guinea-pig", "conditions": "propranolol and Y27632 1 μM, C3 exoenzyme 50 μg/mL, ketanserin 1.0 μM, L-NAME 100 μM", "protocol": "(§1) Organ bath experiments and tissue procurement. Guinea-pigs were killed by a blow on the head. Their hearts were quickly excised and trimmed of excess tissues. The atrium was carefully removed and placed at room temperature (20˜25° C.) in a Krebs solution of the following composition (mM): NaCl 113, KCl 4.8, CaCl2 2.2, KH2PO4 1.2, MgCl2 1.2, NaHCO3 25, dextrose 11.0; bubbled with a 95% O2+5% CO2 mixture, followed by separation of right and left atrium for subsequent experiments.\nQuiescent left atria free of connective tissues were dissected and mounted in an organ bath under a resting tension of 0.5 g. Organs were bathed at 32.5° C. in aerated Krebs solution and electrically stimulated with 1 Hz at […] via two platinum electrodes placed at either side. The positive inotropic effect was measured by determining the cumulative concentration-response curves in the presence of KMUP-3 or KMUP-3 amine salt (0.1, 1.0, 10, 100 μM). To examine the possible involvement of NO and cAMP/cGMP in the action of KMUP-3 or KMUP-3 amine salt on electrically-stimulated beating atria, pre-incubated with a ROCK inhibitor Y27632 (1.0 μM), a β-adrenoceptor blocker propranolol (1.0 μM), eNOS inhibitors L-NAME (100 μM), 7-nitroindazole (100 μM) and 5-HT inhibitor ketanserin (1.0 μM) was performed for 15 min prior to the addition of KMUP-3 or KMUP-3 amine salt to measure the development of beating force and heart rate for 10 min."}, "ROCKII": {"system": "ROCKII", "experiment": "ROCKII expression in electrically-stimulated left atria, Western blotting", "type": "cell-based, guinea-pig", "conditions": "Y27632 1-100 μM", "protocol": "(§2) Protein extraction and Western blotting analysis. Briefly, after incubation with test agents in an organ bath, isolated beating atrium was frozen and pulverized to a fine powder at the temperature of liquid nitrogen. Atrium powders were then homogenized in protein extraction reagent (Pierce Biotechnology, Inc., Rockford, Ill.) by sonication. The samples were sonicated 10 sec three times and centrifuged at 13,000 rpm at 4° C. for 30 min. The protein concentrations of supernatants were determined by using bovine serum albumin as the standard. The cell extracts were then boiled in a ratio of 4:1 with sample buffer (Tris 100 mM, pH 6.8; glycerol 20%, Sodium dodecyl sulfate (SDS) 4% and bromophenol blue 0.2%). Electrophoresis was performed using 10% SDS-PAGE and transferred to nitrocellulose membranes (Millipore Corp., Billerica, Mass.). The membrane was blocked with Tris-buffered saline (TBS; 20 mM Tris and 137 mM NaCl, pH 7.6) containing 0.1% Tween 20 (TTBS) and 5% nonfat milk at room temperature for 1 h, washed with TTBS, and then incubated overnight at 4° C. in the appropriate primary antibody for PKARI, RhoA, ROCKII, p-CIP-17, CPI-17 and PKG1α1β. The membranes were washed in TTBS before being incubated with horseradish peroxidase-conjugated antibody against mouse, goat, or rabbit IgG for 1 hr. Membranes were then washed in TTBS and developed with the enhanced chemiluminescence for the detection of the specific antigen. The intensity of the bands was measured by densitometry. eNOS or phosphorylated eNOS were extracted from cell culture of neonatal myocytes, PA ring and aortic ring (2-3 mm) of rats and measured by Western blotting analysis.\n(§3) PK, ROCKII and CIP-17 expression and pretreatment of beating left atrium. To examine whether KMUP-3 or KMUP-3 amine salt affects the protein expression in beating atrium, PKA, ROCKII, PKG and phosphorylated CIP-17 was determined by Western blotting, respectively. […]"}, "PKA": {"system": "PKA", "experiment": "PKA expression in electrically-stimulated left atria, Western blotting", "type": "cell-based, guinea-pig", "conditions": "Y27632 1-100 μM", "protocol": "as §2, §3"}, "PKCα": {"system": "PKCα", "experiment": "PKCα translocation of beating left atrium", "type": "cell-based, guinea-pig", "conditions": "Y27632 1-10 μM", "protocol": "To determine the effect of KMUP-3 or KMUP-3 amine salt on PKCa translocation, isolated left beating atrium was incubated with KMUP-3 or KMUP-3 amine salt for 30 minutes (0.1-10 μM). In brief, frozen left atrium was pulverized to a fine powder at the temperature of liquid nitrogen for preparation of cytosolic and membrane fractions. Isolated left atrium tissues were then homogenized by a sonicator (XL-2020, Heat Systems Ultrasonic, Plainview, N.Y., USA) at 4 in 1 ml of homogenization buffer containing 20 mM Tris-HCl (pH 7.5), 1 mM dithiothreitol (DTT), 5 mM EGTA, 2 mM EDTA, 0.5 mM PMSF, 20 μM leupeptin and 20 μM aprotinin. The cytosol fractions were obtained by collecting the supernatants after centrifuging the cells at 100,000×g for 45 minutes at 4. The pellets were resonicated in the homogenizing buffer with 1% Triton X-100, centrifuged again at 100,000×g for 45 minutes at 4, and the supernatants collected as membrane fractions. The extracts for cytosol and membrane fractions were denatured by heating at for 10 minutes in sampling buffer, and an aliquot containing 20 μg of total protein was subjected to a 10% SDS-polyacrylamide gel electrophoresis. […] Protein was detected with horseradish peroxidase (HRP) conjugated secondary antibody (BD Transduction Laboratories). […] The immunoreactive bands were detected by chemiluminescence (ECL) reagents (PerkinElmer Life Sciences, Inc)."}, "L-type Ca2+ channels": {"system": "L-type Ca2+ channels", "experiment": "Ca2+ entry currents in H9c2 cells, whole cell patch-clamp", "type": "cell-based, rat", "conditions": "KMUP-3 10 μM with KT5823 3 μM or Y27642 50 μM", "from_the_text": "To measure the ICa through L-type Ca^2+ channels, whole cell patch-clamp electrophysiology was used in rat heart-derived H9c2 cells as previously described. In brief, H9c2 cells were placed in a recording dish and perfused with a bath solution containing (in mM): 135 tetraethylammonium (TEA)-Cl, 1.8 CaCl2, 2 MgCl2, 10 glucose, and 10 HEPES (pH 7.4, Tris). […] Negative pressure was briefly applied to rupture the membrane and a gigaohm seal was obtained.\nH9c2 cells were clamped at −80 mV with step depolarizations (300 ms) from −80 to 0 mV to evoke whole-cell ICa. Voltage clamped cells were equilibrated for 15 min prior to experimentation. Membrane currents were recorded on an Axopatch 700A amplifier (Axon Instruments, Union City, Calif.), filtered at 1 kHz using a low-pass Bessel filter, digitized at 5 kHz and stored on a computer for subsequent analysis with Clampfit 9.0. Following equilibration, ICa was monitored in the presence and absence of KMUP-3 or KMUP-3 amine salt (1, 10, 100 μM). To ascertain whether PKG or ROCK signaling was involved in the KMUP-3-induced decreases in ICa, H9c2 cells were incubated for 15 min with the combination of KMUP-3 or KMUP-3 amine salt (10 μM) and PKG antagonist KT5823 (3 μM) or ROCK inhibitor Y-27632 (50 μM). All electrical recordings were performed at room temperature."}, "[3]": {"system": "isolated spontaneously beating right atrium", "experiment": "Spontaneously beating right atrium, organ bath", "type": "cell-based, guinea-pig", "protocol": "as §1\nSpontaneously beating right atrium was dissected from the heart and mounted in a 10 ml organ bath with one end fixed and the other end connected to a force displacement transducer (Grass, Model FT03). The frequency of contraction was measured on a separate channel by a tachometer (Coulbourn, Model S77-26) connected to a high-speed videograph (Coulbourn, AT L19-69). These experiments were carried out at 32.5° C. in Krebs solution. The atria strip was pre-stretched to a baseline tension of 0.5 g and equilibrated for 90 min in aerated (95% O2+5% CO2) Krebs solution before the experimental protocols were initiated. The atria were then allowed a 30-60 min washout period to re-stabilize. KMUP-3 or KMUP-3 amine salt (0.1, 1.0, 10, 100 μM) were then cumulatively added to the organ bath. […]"}, "[4]": {"system": "electrically-stimulated left atria", "experiment": "Electrically-stimulated beating left atrium, organ bath", "type": "cell-based, guinea-pig", "conditions": "0.1~30 μM, electrical stimulation 1 Hz"}}}
{"molecule": "C[C@@H](N)[C@H]1CC[C@H](C(=O)Nc2ccncc2)CC1", "note": "[Y27632, reference compound]", "values": [{"measurement": "Effect of pretreatment on the effects (LVSP, dP/dt, MABP) induced by KMUP-3", "setting": "[1]", "value": "inhibited"}, {"measurement": "Effect of pretreatment on KMUP-3-induced positive inotropic activity", "setting": "[2]", "value": "reduced"}, {"measurement": "Effect on KMUP-3-induced expression of ROCK II", "setting": "ROCKII", "value": "inhibited"}, {"measurement": "Effect on KMUP-3-induced expression of PKA", "setting": "PKA", "value": "inhibited"}, {"measurement": "Effect of pretreatment on KMUP-3-induced translocation of PKCα", "setting": "PKCα", "value": "insignificantly prevented"}, {"measurement": "Effect of combination on currents reduced by KMUP-3", "setting": "L-type Ca2+ channels", "value": "restored"}]}
{"molecule": "CN1[C@@H]2CC[C@H]1C[C@@H](OC(=O)C(CO)c1ccccc1)C2", "note": "(stereo partly drawn) [atropine]", "values": [{"measurement": "Effect of pretreatment on the beating frequency decreased by KMUP-3", "setting": "[3]; atropine 1 μM, 7-nitroindazole 100 μM", "value": "up-regulated"}]}
{"molecule": "O=C(c1ccc(F)cc1)C1CCN(CCn2c(=O)[nH]c3ccccc3c2=O)CC1", "note": "[ketanserin, reference compound]", "values": [{"measurement": "Effect of pretreatment on the effects (LVSP, dP/dt, MABP) induced by KMUP-3", "setting": "[1]", "value": "inhibited"}, {"measurement": "Effect of pretreatment on KMUP-3-induced positive inotropic activity", "setting": "[2]", "value": "reduced"}]}
{"molecule": "Cc1[nH]c(=O)c(C#N)cc1-c1ccncc1", "note": "[milrinone]", "values": [{"measurement": "Chronotropic effect (beating frequency)", "setting": "[3]; 0.1-30 μM", "value": "increased"}, {"measurement": "Inotropic effect (contraction force)", "setting": "[3]; 0.1-30 μM", "value": "increased"}, {"measurement": "Left atrium contractility", "setting": "[4]", "value": "concentration-dependently increased"}]}
{"molecule": "CC(C)NCC(O)COc1cccc2ccccc12", "note": "(stereo not drawn) [propranolol, reference compound]", "values": [{"measurement": "Effect of pretreatment on the effects (LVSP, dP/dt, MABP) induced by KMUP-3", "setting": "[1]", "value": "inhibited"}, {"measurement": "Effect of pretreatment on KMUP-3-induced positive inotropic activity", "setting": "[2]", "value": "reduced"}]}
{"molecule": "C3 exoenzyme: C3 exoenzyme, used at 50 μg/mL as pretreatment", "values": [{"measurement": "Effect of pretreatment on KMUP-3-induced positive inotropic activity", "setting": "[2]", "value": "reduced"}]}
